Targets include ALK(C1156Y) (Homo sapiens, UniProt Q9UM73, C1156Y); AURKC (Homo sapiens, UniProt Q9UQB9); BLK (Homo sapiens, UniProt P51451); EPHB3 (Homo sapiens, UniProt P54753); FGFR4 (Homo sapiens, UniProt P22455); FLT3(D835Y) (Homo sapiens, UniProt P36888, D835Y); FLT4 (Homo sapiens, UniProt P35916); HASPIN (Homo sapiens, UniProt Q8TF76); HIPK1 (Homo sapiens, UniProt Q86Z02); MAP4K2 (Homo sapiens, UniProt Q12851); NEK11 (Homo sapiens, UniProt Q8NG66); PHKG1 (Homo sapiens, UniProt Q16816); PIK3C2B (Homo sapiens, UniProt O00750); PIK3CA(E542K) (Homo sapiens, UniProt P42336, E542K); PIK3CG (Homo sapiens, UniProt P48736); STK35 (Homo sapiens, UniProt Q8TDR2); TRPM6 (Homo sapiens, UniProt Q9BX84).

What all share (assay): biochemical
Parameters in all cases: KINOMEscan active-site-directed competition binding panel, 468 kinases, percent of DMSO control at 1 uM
Conditions in all cases: KINOMEscan binding, percent of DMSO control; read-out: Ctrl%

In test [1] the target is T1, ABL1(F317L)-nonphosphorylated (Homo sapiens, UniProt P00519, F317L).
T1 construct: nonphosphorylated

The target in test [2] is T2, ABL1(H396P)-phosphorylated (Homo sapiens, UniProt P00519, H396P).
T2 construct: phosphorylated

Another test concerns the target T3, ERK8 (Homo sapiens, UniProt Q8TD08).
T3 construct: gene MAPK15

The next test deals with T4, NDR2 (Homo sapiens, UniProt Q9Y2H1).
T4 construct: gene STK38L

Test [3] addresses T5, RSK1(Kin.Dom.2-C-terminal) (Homo sapiens, UniProt Q15418).
T5 construct: gene RPS6KA1; Kin.Dom.2-C-terminal

The next test deals with T6, TIE2 (Homo sapiens, UniProt Q02763).
T6 construct: gene TEK

For a further test, the target named is T7, p38-beta (Homo sapiens, UniProt Q15759).
T7 construct: gene MAPK11

Sequence of ALK(C1156Y) (Q9UM73 whole entry C1156Y): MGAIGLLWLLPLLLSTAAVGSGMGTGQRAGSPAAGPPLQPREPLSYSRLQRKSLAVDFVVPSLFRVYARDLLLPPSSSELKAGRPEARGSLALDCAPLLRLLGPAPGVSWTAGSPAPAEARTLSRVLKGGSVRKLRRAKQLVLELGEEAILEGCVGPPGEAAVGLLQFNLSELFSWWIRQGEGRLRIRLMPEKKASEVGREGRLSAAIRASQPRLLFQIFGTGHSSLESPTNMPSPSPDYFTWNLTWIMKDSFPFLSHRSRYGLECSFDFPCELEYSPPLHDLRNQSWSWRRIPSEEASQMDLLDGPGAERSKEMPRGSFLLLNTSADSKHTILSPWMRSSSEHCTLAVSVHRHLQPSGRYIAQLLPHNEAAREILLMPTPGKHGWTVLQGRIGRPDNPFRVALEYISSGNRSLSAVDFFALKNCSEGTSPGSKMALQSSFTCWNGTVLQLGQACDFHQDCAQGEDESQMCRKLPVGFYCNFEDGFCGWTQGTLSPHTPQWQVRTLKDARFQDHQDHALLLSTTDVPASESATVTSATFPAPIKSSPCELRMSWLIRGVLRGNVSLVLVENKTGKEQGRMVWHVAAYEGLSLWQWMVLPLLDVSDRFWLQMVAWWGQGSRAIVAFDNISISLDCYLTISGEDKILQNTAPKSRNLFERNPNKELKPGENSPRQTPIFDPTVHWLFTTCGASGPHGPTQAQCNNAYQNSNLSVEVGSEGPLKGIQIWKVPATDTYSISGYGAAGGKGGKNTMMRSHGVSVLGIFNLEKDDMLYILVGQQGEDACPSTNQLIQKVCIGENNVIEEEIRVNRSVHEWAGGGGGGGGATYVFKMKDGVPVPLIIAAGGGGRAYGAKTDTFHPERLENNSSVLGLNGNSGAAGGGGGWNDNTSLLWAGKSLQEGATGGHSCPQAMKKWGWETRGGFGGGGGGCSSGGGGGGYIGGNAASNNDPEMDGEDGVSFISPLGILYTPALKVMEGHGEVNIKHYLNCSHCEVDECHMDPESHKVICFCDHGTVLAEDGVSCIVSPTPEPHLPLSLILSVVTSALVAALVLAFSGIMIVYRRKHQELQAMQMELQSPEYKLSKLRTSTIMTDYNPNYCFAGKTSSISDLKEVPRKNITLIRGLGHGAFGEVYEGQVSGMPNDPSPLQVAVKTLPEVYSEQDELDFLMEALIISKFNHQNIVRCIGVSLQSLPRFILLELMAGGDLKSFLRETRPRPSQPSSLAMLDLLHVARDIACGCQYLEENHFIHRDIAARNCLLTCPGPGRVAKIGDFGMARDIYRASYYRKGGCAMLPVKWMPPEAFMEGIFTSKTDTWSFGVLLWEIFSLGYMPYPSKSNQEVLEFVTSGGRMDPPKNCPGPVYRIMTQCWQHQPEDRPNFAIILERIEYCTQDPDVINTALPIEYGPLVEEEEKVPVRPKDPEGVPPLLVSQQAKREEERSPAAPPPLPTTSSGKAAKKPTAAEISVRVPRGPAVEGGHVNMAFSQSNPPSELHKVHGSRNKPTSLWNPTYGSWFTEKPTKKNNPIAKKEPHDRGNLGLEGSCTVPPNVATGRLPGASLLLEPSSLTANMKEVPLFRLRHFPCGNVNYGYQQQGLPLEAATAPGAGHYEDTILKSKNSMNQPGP
Sequence of MAP4K2 (Q12851 whole entry): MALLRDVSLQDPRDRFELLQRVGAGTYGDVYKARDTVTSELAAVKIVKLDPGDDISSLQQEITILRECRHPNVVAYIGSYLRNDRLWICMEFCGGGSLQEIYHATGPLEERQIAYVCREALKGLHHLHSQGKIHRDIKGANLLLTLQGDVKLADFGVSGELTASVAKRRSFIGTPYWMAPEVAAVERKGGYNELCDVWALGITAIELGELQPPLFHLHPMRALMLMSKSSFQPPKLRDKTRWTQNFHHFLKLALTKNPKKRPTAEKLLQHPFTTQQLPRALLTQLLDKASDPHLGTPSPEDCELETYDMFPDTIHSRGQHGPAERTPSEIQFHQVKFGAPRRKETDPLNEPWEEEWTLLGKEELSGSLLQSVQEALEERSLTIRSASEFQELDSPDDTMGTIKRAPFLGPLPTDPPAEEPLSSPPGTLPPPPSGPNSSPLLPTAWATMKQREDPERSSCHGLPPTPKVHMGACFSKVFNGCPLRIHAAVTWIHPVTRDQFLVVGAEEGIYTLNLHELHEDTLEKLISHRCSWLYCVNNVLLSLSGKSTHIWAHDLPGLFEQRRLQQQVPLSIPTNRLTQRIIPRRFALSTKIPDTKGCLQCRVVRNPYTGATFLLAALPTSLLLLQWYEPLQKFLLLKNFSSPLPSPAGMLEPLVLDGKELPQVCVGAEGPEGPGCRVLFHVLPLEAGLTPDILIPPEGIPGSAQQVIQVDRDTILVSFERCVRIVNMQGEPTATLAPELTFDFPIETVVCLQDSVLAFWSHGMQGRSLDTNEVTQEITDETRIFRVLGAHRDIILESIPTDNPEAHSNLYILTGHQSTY
T6 sequence (Q02763 whole entry): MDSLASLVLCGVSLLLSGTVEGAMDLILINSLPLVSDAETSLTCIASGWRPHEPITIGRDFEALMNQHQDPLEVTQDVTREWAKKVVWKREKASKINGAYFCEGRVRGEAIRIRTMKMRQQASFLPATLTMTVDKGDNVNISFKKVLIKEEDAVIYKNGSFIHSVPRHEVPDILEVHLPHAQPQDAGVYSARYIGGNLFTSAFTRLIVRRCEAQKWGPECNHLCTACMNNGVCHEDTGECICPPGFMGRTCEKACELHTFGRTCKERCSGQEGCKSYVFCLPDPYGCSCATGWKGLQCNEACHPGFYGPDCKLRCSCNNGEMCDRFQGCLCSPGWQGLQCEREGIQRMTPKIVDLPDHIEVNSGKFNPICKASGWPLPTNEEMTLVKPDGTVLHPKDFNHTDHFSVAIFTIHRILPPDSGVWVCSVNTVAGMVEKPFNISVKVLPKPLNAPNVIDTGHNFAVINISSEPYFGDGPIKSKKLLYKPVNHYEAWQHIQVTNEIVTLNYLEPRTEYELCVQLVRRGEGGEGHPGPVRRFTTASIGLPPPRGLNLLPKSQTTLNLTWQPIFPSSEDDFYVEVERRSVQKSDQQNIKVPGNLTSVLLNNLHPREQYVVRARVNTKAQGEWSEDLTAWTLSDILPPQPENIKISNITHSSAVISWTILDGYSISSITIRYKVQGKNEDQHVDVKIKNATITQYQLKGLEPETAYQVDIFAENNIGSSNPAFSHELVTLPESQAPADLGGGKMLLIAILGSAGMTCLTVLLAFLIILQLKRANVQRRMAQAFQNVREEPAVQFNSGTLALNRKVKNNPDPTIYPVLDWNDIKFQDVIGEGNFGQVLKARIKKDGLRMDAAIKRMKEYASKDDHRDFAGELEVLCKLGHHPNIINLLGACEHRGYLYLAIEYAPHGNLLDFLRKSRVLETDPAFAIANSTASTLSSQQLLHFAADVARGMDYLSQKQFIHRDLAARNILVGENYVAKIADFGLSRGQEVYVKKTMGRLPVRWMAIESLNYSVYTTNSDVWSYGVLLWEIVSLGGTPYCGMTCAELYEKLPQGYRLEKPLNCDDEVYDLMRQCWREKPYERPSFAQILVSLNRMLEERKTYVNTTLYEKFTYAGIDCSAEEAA
Sequence of BLK (P51451 whole entry): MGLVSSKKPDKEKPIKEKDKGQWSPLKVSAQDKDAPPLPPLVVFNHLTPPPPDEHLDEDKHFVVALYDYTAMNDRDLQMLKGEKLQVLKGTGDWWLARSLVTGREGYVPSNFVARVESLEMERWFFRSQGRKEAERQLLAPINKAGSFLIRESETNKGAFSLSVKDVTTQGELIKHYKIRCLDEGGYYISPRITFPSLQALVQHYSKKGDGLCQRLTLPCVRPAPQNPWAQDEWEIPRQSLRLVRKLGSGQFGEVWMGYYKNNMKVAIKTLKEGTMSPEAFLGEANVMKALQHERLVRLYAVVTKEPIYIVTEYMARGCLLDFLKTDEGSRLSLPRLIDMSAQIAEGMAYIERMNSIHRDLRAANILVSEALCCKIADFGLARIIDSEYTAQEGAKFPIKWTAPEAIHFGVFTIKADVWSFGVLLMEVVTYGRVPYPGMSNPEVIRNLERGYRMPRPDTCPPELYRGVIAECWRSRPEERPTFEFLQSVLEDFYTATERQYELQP
Sequence of FGFR4 (P22455 whole entry): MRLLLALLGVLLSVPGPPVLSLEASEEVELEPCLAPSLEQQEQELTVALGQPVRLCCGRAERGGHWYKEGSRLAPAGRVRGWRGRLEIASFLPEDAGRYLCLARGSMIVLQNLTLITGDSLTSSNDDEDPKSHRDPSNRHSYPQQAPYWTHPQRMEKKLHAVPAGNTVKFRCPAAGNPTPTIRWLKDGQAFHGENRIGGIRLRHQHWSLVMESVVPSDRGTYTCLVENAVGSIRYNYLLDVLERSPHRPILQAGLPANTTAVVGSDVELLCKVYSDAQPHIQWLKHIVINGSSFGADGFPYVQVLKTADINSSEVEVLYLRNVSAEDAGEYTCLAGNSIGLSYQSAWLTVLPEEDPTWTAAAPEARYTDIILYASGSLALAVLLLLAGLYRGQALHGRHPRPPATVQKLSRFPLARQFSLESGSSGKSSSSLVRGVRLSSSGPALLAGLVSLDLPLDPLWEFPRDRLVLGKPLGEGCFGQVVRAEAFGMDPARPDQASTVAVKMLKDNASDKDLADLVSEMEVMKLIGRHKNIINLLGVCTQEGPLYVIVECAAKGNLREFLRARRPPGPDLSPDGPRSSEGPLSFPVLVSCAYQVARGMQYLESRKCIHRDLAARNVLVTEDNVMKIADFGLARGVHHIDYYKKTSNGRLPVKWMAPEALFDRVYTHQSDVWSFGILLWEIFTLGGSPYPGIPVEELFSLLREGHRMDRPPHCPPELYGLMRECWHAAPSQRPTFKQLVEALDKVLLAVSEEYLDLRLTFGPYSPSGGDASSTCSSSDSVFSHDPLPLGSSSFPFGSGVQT

As to `Cc1ccc(NC(=O)c2cccc(C(F)(F)F)c2)cc1Nc1cc(-c2cccnc2)nc2[nH]ccc12` [HZX-02-059], the remaining binding at 1 µM was 60% in test [1]; 84% in [2]; 99% at ALK(C1156Y); 75% on AURKC; 91% on BLK; 48% on EPHB3. Also, the remaining binding at 1 µM on ERK8 was found to be 92%; at FGFR4 it was 91%; at FLT3(D835Y) it was 100%; on FLT4, 94%; at HASPIN it was 100%; on HIPK1, 74%. Further, the remaining binding at 1 µM on MAP4K2 stood at 96%; at NDR2, 94%; on NEK11 it was 100%; at PHKG1, 97%; on PIK3C2B, 100%; on PIK3CA(E542K), 56%. Also, the remaining binding at 1 µM on PIK3CG was determined as 96%; in test [3], 100%; at STK35, 80%; on TIE2, 66%; at TRPM6 it was 50%; on p38-beta, 64%.

The values are drawn from publication PMC8799717, “Pharmacological targeting PIKfyve and tubulin as an effective treatment strategy for double-hit lymphoma” (Cell Death Discovery, 2022).
